Consider 24 compounds from patent US4034102A, “4-Substituted-1,3-dithiolan-2-ylidene malonates and pharmaceutical compositions containing the same” (Nihon Nohyaku Co. Ltd., priority 1975, dated 1977).

SMILES strings stand for the structures. Some results are limits rather than exact numbers.

In data set [1] the test system is CCl4-induced liver damage. As to the kind of experiment: Protection against CCl4-induced Hepatotoxicity. The class given is in vivo, mice (four-week-old male, dd strain). As to conditions: 6 h before CCl4 (0.05 ml/kg oral), 24 h after CCl4, average of 5 to 6 mice; for Liver damage index: 250 mg/kg oral in olive oil, score 0 normal, 2 slightly recognized, 4 clearly observable damage, 6 heavy damage, CCl4 alone 5.2, control 0; for p-GPT (plasma glutamic-pyruvic transaminase activity): 250 mg/kg oral, values over 1,000 regarded as 1,000, CCl4 alone >1000, control 35. From the text:
Carbon tetrachloride (CCl4) administration induces centrilobular necrosis of the liver associated with loss of diphosphopyridine nucleotide, hepatic glycogen, coenzyme A and increase in neutral fat. Release of several enzymes from the hepatocytes, and increase of enzyme activities in the plasma are recognized as the result of the damage of the liver. A suitable means for evaluating the degree of damage induced by CCl4 or the degree of protection afforded by drugs is to study the plasma glutamic-pyruvic transaminase (p-GPT) activity.
Methods: The test compounds were dissolved or suspended in olive oil and administered orally at the dose of 250 mg/kg to the mice (Four-week-old male mice-dd strain). After 6 hours, CCl4 was administered orally (0.05 ml/kg as olive oil solution). Animals were killed 24 hours after CCl4 administration, and the liver was grossly observed. The plasma was obtained by centrifugation. Activities of p-GPT were determined by the method of Reitman and Frankels and expressed in Karmen units. Score for liver damage index was as follows:
Each figure indicates average of 5 to 6 mice. Values of p-GPT over 1,000 Karmen unit regarded as 1,000 for calculation of average for convenience.

Data set [2] in a line: in vivo. Particulars: mouse, oral, male mice, read-out: acute oral toxicity LD50. On the procedure: For example, the LD50 value of the compound 12 is more than 3,000 mg/kg. Further, these compounds have no detrimental effects on test animals administered therewith, so far as the doses thereof are within an ordinary administration range.

For `COc1ccc(-c2cc(=S)ss2)cc1` [Anethol trithion, reference compound], in data set [1], the Liver damage index is 1.6 and the “p-GPT (plasma glutamic-pyruvic transaminase activity)” value (“p-GPT” for short) is listed as 58 Karmen units.

On to `CCOC(=O)C(C(=O)OCC)=C1SCC(OC(=O)CCl)S1` (stereo not shown) [Compound 1], for which, in data set [1], the Liver damage index is recorded as 1.0 and the “p-GPT” value was 102 Karmen units.

Take `CCOC(=O)C(C(=O)OCC)=C1SCC(OC(=O)CCC(=O)O)S1` (stereo not shown) [Compound 2, Succinic acid semi-ester of diethyl 4-hydroxy-1,3-dithiolan-2-ylidene malonate]: in data set [1], the Liver damage index is on record as 0.6 and the “p-GPT” value was 43 Karmen units.

`CCOC(=O)C(C(=O)OCC)=C1SCC(OC(=O)CCCC(=O)O)S1` (stereo not shown) [Compound 3]: in data set [1], the Liver damage index was 1.2 and the “p-GPT” value amounted to 108 Karmen units.

With `CCOC(=O)C(C(=O)OCC)=C1SCC(OC(=O)CCC(=O)O)S1` (stereo not shown) [Compound 4], in data set [1], the Liver damage index came out at 0.2 and the “p-GPT” value was found to be 45 Karmen units.

Regarding `CCOC(=O)C(C(=O)OCC)=C1SCC(OC(=O)CN(CC)CC)S1` (stereo not shown) [Compound 5, Diethyl 4-diethylaminoacetoxy-1,3-dithiolan-2-ylidene malonate], in data set [1], the Liver damage index is on record as 1.6 and the “p-GPT” value was 232 Karmen units.

For `CCCN(CCC)CC(=O)OC1CSC(=C(C(=O)OCC)C(=O)OCC)S1` (stereo not shown) [Compound 6], in data set [1], the Liver damage index is 1.6 and the “p-GPT” value stood at 250 Karmen units.

With `CCOC(=O)C(C(=O)OCC)=C1SCC(OC(=O)C2=C(C(=O)O)CCCC2)S1` (stereo not shown) [Compound 7], in data set [1], the Liver damage index was found to be 2.2 and the “p-GPT” value is 382 Karmen units.

For the compound `CCCOC(=O)C(C(=O)OCCC)=C1SCC(OC(=O)CCC(=O)O)S1` (stereo not shown) [Compound 8, Succinic acid semi-ester of di-n-propyl 4-hydroxy-1,3-dithiolan-2-ylidene malonate], in data set [1], the Liver damage index is on record as 0.6 and the “p-GPT” value came to 77 Karmen units.

`CC(C)OC(=O)C(C(=O)OC(C)C)=C1SCC(OC(=O)CCl)S1` (stereo not shown) [Compound 9, diisopropyl 4-chloroacetoxy-1,3-dithiolan-2-ylidene malonate]: in data set [1], the Liver damage index is given as 0.6 and the “p-GPT” value is given as 65 Karmen units.

With `CC(C)OC(=O)C(C(=O)OC(C)C)=C1SCC(OC(=O)c2ccccc2)S1` (stereo not shown) [Compound 10], in data set [1], the Liver damage index is reported as 1.7 and the “p-GPT” value came out at 520 Karmen units.

As to `CC(C)OC(=O)C(C(=O)OC(C)C)=C1SCC(OC(=O)CCC(=O)O)S1` (stereo not shown) [Compound 11, succinic acid semi-ester of diisopropyl 4-hydroxy-1,3-dithiolan-2-ylidene malonate], in data set [1], the Liver damage index turned out to be 0.2 and the “p-GPT” value stood at 54 Karmen units.

Consider `CC(C)OC(=O)C(C(=O)OC(C)C)=C1SCC(OC(=O)CCC(=O)O)S1` (stereo not shown) [Compound 12], for which, in data set [2], the LD50 was over 3000 mg/kg. In addition, in data set [1], the Liver damage index is 0.2 and the “p-GPT” value was determined as 33 Karmen units.

For the compound `CC(C)OC(=O)C(C(=O)OC(C)C)=C1SCC(OC(=O)CCC(=O)O)S1` (stereo not shown) [Compound 13], in data set [1], the Liver damage index is reported as 0.6 and the “p-GPT” value came out at 44 Karmen units.

As for `CC(C)OC(=O)C(C(=O)OC(C)C)=C1SCC(OC(=O)CCCC(=O)O)S1` (stereo not shown) [Compound 14], in data set [1], the Liver damage index is listed as 0.6 and the “p-GPT” value is 102 Karmen units.

For `CC(C)OC(=O)C(C(=O)OC(C)C)=C1SCC(OC(=O)/C=C\C(=O)O)S1` (stereo not shown) [Compound 15], in data set [1], the Liver damage index is on record as 0.4 and the “p-GPT” value is listed as 62 Karmen units.

In the case of `CC(C)OC(=O)C(C(=O)OC(C)C)=C1SCC(OC(=O)c2ccccc2C(=O)O)S1` (stereo not shown) [Compound 16, phthalic acid semi-ester of diisopropyl 4-hydroxy-1,3-dithiolan-2-ylidene malonate], in data set [1], the Liver damage index is reported as 3.2 and the “p-GPT” value came to 482 Karmen units.

As for `CC(C)OC(=O)C(C(=O)OC(C)C)=C1SCC(OC(=O)C2=C(C(=O)O)CCCC2)S1` (stereo not shown) [Compound 17], in data set [1], the Liver damage index is reported as 1.8 and the “p-GPT” value is given as 286 Karmen units.

In the case of `CC(C)OC(=O)C(C(=O)OC(C)C)=C1SCC(OC(=O)C2CC=CCC2C(=O)O)S1` (stereo not shown) [Compound 18], in data set [1], the Liver damage index is on record as 2.6 and the “p-GPT” value is recorded as 565 Karmen units.

Regarding `CCN(CC)CC(=O)OC1CSC(=C(C(=O)OC(C)C)C(=O)OC(C)C)S1` (stereo not shown) [Compound 19, diisopropyl 4-diethylaminoacetoxy-1,3-dithiolan-2-ylidene malonate], in data set [1], the Liver damage index amounted to 1.2 and the “p-GPT” value was 288 Karmen units.

For the compound `CC(C)OC(=O)C(C(=O)OC(C)C)=C1SCC(OC(=O)CN2CCOCC2)S1` (stereo not shown) [Compound 21], in data set [1], the Liver damage index is 1.4 and the “p-GPT” value is given as 380 Karmen units.

With `CCCCOC(=O)C(C(=O)OCCCC)=C1SCC(OC(=O)CN2CCOCC2)S1` (stereo not shown) [Compound 22], in data set [1], the Liver damage index turned out to be 0.8 and the “p-GPT” value was 134 Karmen units.

For `CCOC(=O)C(C(=O)OCC)=C1SCC(OC(=O)CN2CCOCC2)S1` (stereo not shown) [Compound 23], in data set [1], the Liver damage index is reported as 0.8 and the “p-GPT” value came out at 122 Karmen units.

As to `NC(=O)CCCCC1CCSS1` (stereo not shown) [Thioctic acid amide, reference compound], in data set [1], the Liver damage index is listed as 4.8 and the “p-GPT” value turned out to be 763 Karmen units.
